Test results taken from patent US6841548B2, “Pharmaceutical preparations containing estra-1,3,5(10)-triene derivatives” (Schering AG, priority 1994, dated 2005).

How the values were obtained:
ovariectomated rats [1] = assay: Oral estrogenic effects: uterus weights in ovariectomated rats; assay type: in vivo, rat
From the text: (§1) The laboratory animals, adult female rats (breeder: HSD/WIN:WU) were ovariectomated on day 14. Treatment started two weeks later by a single oral application per day of the respective test substance. The dosages given for esters refer to the steroid portion of the substances. The tests were made in three groups (A, B, C) at various points in time. This is why there is a deviation in control group values. The tests of series A, B, and C can therefore be compared among each other if the values for the respective control groups are taken into account.
(§2) The procedure of allocating animals to groups was randomized. The experiment was carried out as a block test. The animals were weighed at the beginning and at the end of the experiment.
(§3) The start of treatment was defined as day 1 (=d1), treatment was finished on day 7 (=d7); the animals were killed on day 8, various organs (uteri, adrenal glands, liver) were removed, weighed and deep-frozen (−196° C.) for further examination.

ovariectomated rats [2] = assay: Oral estrogenic effects: weights of adrenal glands in ovariectomated rats; assay type: in vivo, rat
From the text: as §1, §2, §3

ovariectomated rats [3] = assay: Oral estrogen treatment: serum IGF1 (somatomedin C), RIA; assay type: in vivo, rat; design: unit not given here; conditions: Experiment A
From the text: as §1, §2, §3
(§4) Blood was taken from the retrobulbar plexus under ether anaesthesia prior to treatment (d0), and on (d4) and (d8). IGF1, angiotensin I, cholesterol and HDL cholesterol were determined in the serum obtained.
IGF1: RIA by bioMérieux Co.;

ovariectomated rats [4] = assay: Hepatic parameters: serum angiotensin I, modified RIA for renin activity; assay type: in vivo, rat; design: Angiotensin I: unit not given here; conditions: for Angiotensin I: Experiment A
From the text: as §1, §2, §3, §4
angiotensin: modified RIA for renin activity by Sorin Co.

ovariectomated rats [5] = assay: Hepatic parameters: total cholesterol levels in serum, enzymatic test; assay type: in vivo, rat; conditions: Experiment A
Procedure: The laboratory animals, adult female rats (breeder: HSD/WIN:WU) were ovariectomated on day 14. Treatment started two weeks later by a single oral application per day of the respective test substance. The dosages given for esters refer to the steroid portion of the substances. The tests were made in three groups (A, B, C) at various points in time.
as §2, §3, §4
(§5) cholesterol/HDL: enzymatic tests, photometric determination, reagents by Dr Bruno Lange GmbH.

ovariectomated rats [6] = assay: Hepatic parameters: HDL cholesterol levels in serum, enzymatic test; assay type: in vivo, rat; conditions: Experiment A
From the text: as §1, §2, §3, §4, §5

[7] = oral, humans, Goldzieher study; cited from earlier work
[8] = Experiment A, 0.1 μg/animal/day p.o. d1-d7
[9] = Experiment A, 1 μg/animal/day p.o. d1-d7
[10] = Experiment A, 10 μg/animal/day p.o. d1-d7
[11] = Experiment A, 100 μg/animal/day p.o. d1-d7
[12] = Experiment B, 10 μg/animal/day p.o. d1-d7
[13] = day 4, 0.1 μg/animal/day p.o. d1-d7
[14] = day 4, 1 μg/animal/day p.o. d1-d7
[15] = day 4, 10 μg/animal/day p.o. d1-d7
[16] = day 4, 100 μg/animal/day p.o. d1-d7
[17] = day 8, 0.1 μg/animal/day p.o. d1-d7
[18] = day 8, 1 μg/animal/day p.o. d1-d7
[19] = day 8, 10 μg/animal/day p.o. d1-d7
[20] = day 8, 100 μg/animal/day p.o. d1-d7

## C#C[C@]1(O)CC[C@H]2[C@@H]3CCc4cc(O)ccc4[C@H]3CC[C@@]21C [EE, ethinyl estradiol]
Ovariectomated rats [1]; [8]
  Uterus weights (mean value): 152.2 mg
Ovariectomated rats [1]; [9]
  Uterus weights (mean value): 195.8 mg
Ovariectomated rats [1]; [10]
  Uterus weights (mean value): 282.4 mg
Ovariectomated rats [1]; [11]
  Uterus weights (mean value): 441.2 mg
Ovariectomated rats [1]; [12]
  Uterus weights (mean value): 352.59 mg
Ovariectomated rats [2]; [8]
  Weights of adrenal glands (mean value): 53.7 mg
Ovariectomated rats [2]; [9]
  Weights of adrenal glands (mean value): 58.9 mg
Ovariectomated rats [2]; [10]
  Weights of adrenal glands (mean value): 59.0 mg
Ovariectomated rats [2]; [11]
  Weights of adrenal glands (mean value): 80.8 mg
Ovariectomated rats [2]; [12]
  Weights of adrenal glands (mean value): 56.6 mg
Ovariectomated rats [3]; 100 μg/animal/day p.o. d1-d7, d 0 (prior to treatment)
  IGF1 (= somatomedin C): 704.6 ± 70.4
Ovariectomated rats [3]; 100 μg/animal/day p.o. d1-d7, d 4
  IGF1 (= somatomedin C): 547.0 ± 88.7
Ovariectomated rats [3]; 100 μg/animal/day p.o. d1-d7, d 8
  IGF1 (= somatomedin C): 393.6 ± 71.1
Ovariectomated rats [4]; [13]
  Angiotensin I: 408.2 ± 31.2
Ovariectomated rats [4]; [14]
  Angiotensin I: 402.2 ± 30.3
Ovariectomated rats [4]; [15]
  Angiotensin I: 572.2 ± 35.0
Ovariectomated rats [4]; [16]
  Angiotensin I: 930.1 ± 146.2
Ovariectomated rats [4]; [17]
  Angiotensin I: 473.7 ± 19.7
Ovariectomated rats [4]; [18]
  Angiotensin I: 492.6 ± 29.1
Ovariectomated rats [4]; [19]
  Angiotensin I: 498.7 ± 26.1
Ovariectomated rats [4]; [20]
  Angiotensin I: 833.1 ± 137.2
Ovariectomated rats [4]; doses of 10 or 100 μg, detectable as early as day 4
  Effect on angiotensin I (AI) values, in words: sharp increases of AI
Ovariectomated rats [5]; [13]
  Total cholesterol levels (mean value ± standard deviation): 81.0 ± 3.3 mg/dL
Ovariectomated rats [5]; [14]
  Total cholesterol levels (mean value ± standard deviation): 82.4 ± 15.8 mg/dL
Ovariectomated rats [5]; [15]
  Total cholesterol levels (mean value ± standard deviation): 30.3 ± 9.6 mg/dL
Ovariectomated rats [5]; [16]
  Total cholesterol levels (mean value ± standard deviation): 6.8 ± 3.2 mg/dL
Ovariectomated rats [5]; [17]
  Total cholesterol levels (mean value ± standard deviation): 86.5 ± 9.6 mg/dL
Ovariectomated rats [5]; [18]
  Total cholesterol levels (mean value ± standard deviation): 80.2 ± 14.4 mg/dL
Ovariectomated rats [5]; [19]
  Total cholesterol levels (mean value ± standard deviation): 39.8 ± 10.2 mg/dL
Ovariectomated rats [5]; [20]
  Total cholesterol levels (mean value ± standard deviation): 5.5 ± 3.3 mg/dL
Ovariectomated rats [6]; [13]
  HDL cholesterol levels (mean value ± standard deviation): 49.6 ± 2.9 mg/dL
Ovariectomated rats [6]; [14]
  HDL cholesterol levels (mean value ± standard deviation): 47.1 ± 8.5 mg/dL
Ovariectomated rats [6]; [15]
  HDL cholesterol levels (mean value ± standard deviation): 19.5 ± 8.4 mg/dL
Ovariectomated rats [6]; [16]
  HDL cholesterol levels (mean value ± standard deviation): 3.6 ± 1.3 mg/dL
Ovariectomated rats [6]; [17]
  HDL cholesterol levels (mean value ± standard deviation): 52.2 ± 4.1 mg/dL
Ovariectomated rats [6]; [18]
  HDL cholesterol levels (mean value ± standard deviation): 49.5 ± 6.9 mg/dL
Ovariectomated rats [6]; [19]
  HDL cholesterol levels (mean value ± standard deviation): 26.5 ± 7.8 mg/dL
Ovariectomated rats [6]; [20]
  HDL cholesterol levels (mean value ± standard deviation): 2.4 ± 0.9 mg/dL
[7]
  Highest AUC found, measured 0 to 24 hours after application: 2.121 ng·h/mL
  Lowest AUC, measured 0 to 24 hours after application: 0.284 ng·h/mL
